Measurements: publication PMC11486602 (The New phytologist, 2024)

Key:
[1] = biological target: PROTODERMAL FACTOR2 (PDF2), pdf2(START)^L467P (Arabidopsis thaliana, UniProt Q93V99, L467P); assay: microscale thermophoresis with […] DOPC/LysoPC […] liposomes; assay type: binding
[2] = biological target: T1, PROTODERMAL FACTOR2 (PDF2) (Arabidopsis thaliana, UniProt Q93V99); assay: as above; assay type: binding
T1 sequence (Q93V99 244-476 limits assumed): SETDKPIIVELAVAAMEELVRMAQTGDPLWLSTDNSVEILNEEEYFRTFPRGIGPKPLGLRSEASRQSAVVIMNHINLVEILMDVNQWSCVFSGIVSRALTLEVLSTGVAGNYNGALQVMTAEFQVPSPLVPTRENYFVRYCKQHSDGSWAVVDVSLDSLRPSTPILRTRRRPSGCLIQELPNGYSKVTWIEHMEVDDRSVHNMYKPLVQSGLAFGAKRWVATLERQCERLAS

Sequence of PROTODERMAL FACTOR2 (PDF2), pdf2(START)^L467P (Q93V99 244-476 L467P): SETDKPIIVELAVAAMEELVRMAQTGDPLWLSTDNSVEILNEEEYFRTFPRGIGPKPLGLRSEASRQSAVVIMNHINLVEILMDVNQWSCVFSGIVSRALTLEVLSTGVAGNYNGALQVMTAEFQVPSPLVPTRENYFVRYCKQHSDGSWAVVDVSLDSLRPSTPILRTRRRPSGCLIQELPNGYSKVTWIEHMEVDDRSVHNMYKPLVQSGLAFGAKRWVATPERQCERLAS

Q: Which results are given for LysoPC 18:1?
A: Kd [1]: 200 µM; Kd [2]: 17 µM
